“Also recorded” adds a separate entry of the source.
Key:
psoriatic lesions = test: Clinical observation of psoriatic plaques under topical treatment; format: in vivo, human
Procedure: The base cream used is made predominantly of heavy paraffin oil (10% w/w), vaseline (10% w/w), stearyl alcohol (8% w/w), polyoxylsteareth-40 (3% w/w) and water (68% w/w) but another suitably formulated base cream is also possible. […] The dosing and the application schedules followed for the lesion shown in FIG. 1A (psoriatic plaque on the dorsum of hand) are as follows: about 30 μl cream applied directly onto the lesion with the aid of a steel spatula every four hours for 24 hours. The cream-applied area is protected from accidental smearing and loss of the cream by covering with an aluminum applicator (FIG. 1 B). The dosing and the application schedules followed for the lesion shown in FIG. 1 D (psoriatic plaque at the scapular region) are as follows: about 30 μl cream applied directly onto the lesion every four hours for 24 hours. The cream-applied area is similarly covered against the smearing and loss of cream. Other treated psoriatic patients and lesions received from about 30 to 35 μl cream to each lesion at intervals of every 3 to 5 hours, as suitable and convenient. Lesions were similarly covered against the smearing and loss of cream. […] The corticosteroid used for treatment of the lesion shown in FIG. 4E was clobetasol 17-propionate in a final concentration of about 1.1 mM in base cream.

[1] = test system: palmoplantar pustulosis lesions; settings: 0.55 mM alone for 4 days; cited from earlier work
healthy skin = test: Follow-up of healthy and non-lesional skin for adverse effects of topical cyclopamine; settings: for adverse effect on healthy / non-lesional skin: topical application under the described concentration and dosing conditions
Text: Genetic heterogeneity and different ages of the psoriatic patients as well as the localizational heterogeneity of psoriatic lesions throughout body invite evaluation of the use of cyclopamine on different patients and lesions.
As there is evidence for the involvement of the hedgehog/smoothened signal transduction pathway in the maintenance of epidermal stem cells, untoward side effects of cyclopamine on skin are, a priori, possible and must be excluded.

psoriatic lesional skin = test: Histopathological examination (H&E) of treated psoriatic lesional skin sections; format: in vivo, human; settings: 24th hour of treatment
Procedure: FIG. 1A and FIG. 1C show a psoriatic plaque before and after exposure to cyclopamine and the rapid clinical regression. The cyclopamine cream was applied to the proximal half of this lesion present on the dorsum of right hand of a patient having plaque-type psoriasis. At intervals of 4 hours, approximately 30 μl cream was applied directly onto the lesion and the cream-applied region was covered against accidental smearing and loss of the cream (FIG. 1 B).
FIG. 2A to FIG. 2W show histopathological and immunohistochemical examination findings of the tissue sections from the non-lesional skin, cyclopamine-treated lesional skin and non-treated lesional skin. Compared to the non-lesional skin (FIG. 2A), the non-treated lesional skin (FIG. 2B) is seen to display the typical histopathological signs of a psoriatic skin lesion mentioned above in the “Background of Invention”. […] These histopathological signs of regression to normalcy, exemplified in the figures FIG. 2C and FIG. 2D (examples from other cyclopamine-treated lesions and patients are given later) include the following: […]

cytokeratin 15 = test: Immunohistochemical staining with C8/144B antibody (cytokeratin 15)
Text: All antibodies and reagents for these immunohistochemical investigations were purchased from DAKO (Glostrup, Denmark); human Ki-67 antigen was detected by the monoclonal antibody M7187, human epithelial antigen was detected by the monoclonal antibody Ber-EP4, human CD4 antigen was detected by the monoclonal antibody M0716, human CD8 antigen was detected by the monoclonal antibody C8/144B. Besides the CD8 antigen, the monoclonal antibody C8/144B is known to recognize and bind to the cytokeratin 15 expressed by the hair stem cells (Kanitakis J. et al. (1999) Eur. J. Dermatol. 9:363-365). A DAKO “universal visualization kit” (LSAB2) employing biotinylated secondary antibody and peroxidase-conjugated streptavidin (pre-diluted to match the dilutions of DAKO-supplied primary antibodies) was used for the visualization reactions. All reaction conditions were as recommended by the manufacturer.

human epithelial antigen = test: Immunohistochemical staining for epithelial antigen with Ber-EP4 antibody; format: in vivo
Text: All reaction conditions were as recommended by the manufacturer.
The monoclonal antibody Ber-EP4 is known to label the basal layer cells in normal epidermis. The outer root sheath of hair follicles, where the hair stem cells are thought to reside, are also known to be labeled with Ber-EP4.

[2] = psoriatic lesional skin, 24th hour of treatment

| SMILES | regression or clearance of psoriatic lesions (psoriatic lesions; about […], alone, four days of treatment) | effect on palmoplantar pustulosis lesions [1] | appearance of skin sites of cyclopamine application (healthy skin; follow-up over a period of more than 31 months) | adverse effect on healthy / non-lesional skin (healthy skin) | adverse effect on healthy / non-lesional skin (healthy skin; listed as Cyclopamine) | granular layer of epidermis (psoriatic lesional skin) | histopathological signs of the psoriatic lesion (psoriatic lesional skin) | erythema of the psoriatic plaque (psoriatic lesions; 12th hour of treatment, scapular plaque, cyclopamine applied for a day then discontinued) | effectiveness on psoriatic lesions (regression and clearance) (psoriatic lesions; every lesion treated, unrelated patients 29 to 57 years, extremities to trunk) | state of the psoriatic plaque (psoriatic lesions; fourth day of follow-up, scapular plaque, 1 day of treatment, still visible) | lesions subjected to the single-day treatment that failed to clear completely (psoriatic lesions; human, in vivo) | day on which the lesion cleared (psoriatic lesions; scapular plaque, cyclopamine applied for a day then discontinued) | cytokeratin 15 in basal cells of non-lesional epidermis (cytokeratin 15; non-lesional epidermis exposed to cyclopamine) | C8/144B (cytokeratin 15) labeling of epidermal basal layer cells (cytokeratin 15; [2]) | Ber-EP4 labeling of basal cells of non-lesional skin (human epithelial antigen; non-lesional skin after exposure to cyclopamine) | Ber-EP4 labeling of epidermal basal layer cells (human epithelial antigen; [2]) |
| --- | --- | --- | --- | --- | --- | --- | --- | --- | --- | --- | --- | --- | --- | --- | --- | --- |
| CCC(=O)O[C@]1(C(=O)CCl)[C@@H](C)C[C@H]2[C@@H]3CCC4=CC(=O)C=C[C@]4(C)[C@@]3(F)[C@@H](O)C[C@@]21C [clobetasol 17-propionate, reference compound] | unable to cause a significant regression or clearance | not to produce a perceptible effect |  |  |  |  |  |  |  |  |  |  |  |  |  |  |
| CC1=C2C[C@H]3[C@@H](CC=C4C[C@@H](O)CC[C@@]43C)[C@@H]2CC[C@]12O[C@@H]1C[C@H](C)CN[C@H]1[C@H]2C [cyclopamine] |  |  | healthy-looking normal skin and hair | no adverse effect has been detected | did not adversely affect the non-lesional skin; also recorded: no detectable adverse effect | Re-appearance of the granular layer | dramatic improvement and regression to normalcy; also recorded: regression of the psoriatic plaque | decreased erythema | highly effective | marked regression | about 29% | > 8 days | continued to be positive for the cytokeratin 15 | normalized and became labeled by the C8/144B antibody; also recorded: reversion to normalcy | remained Ber-EP4 positive | reverted to normalcy; also recorded: reversion to normalcy; also recorded: Epidermal basal layer cells are seen to display the epithelial antigen |

Source: patent US20180185391A1, “Drug Treatment Of Psoriasis And Of Other Skin Disorders Associated With Inhibition Of Differentiation Of Epidermal Cells” (priority 2016, published 2018)
